# Experimental data from US12139461B1, “Piperidine compounds as PDE5 inhibitors” (KING SAUD UNIVERSITY, priority 2024, dated 2024).
# Where “and” joins values, the source holds several entries; their conditions need not be identical. Equal entries are not always repeated.
# Experiments:
# rats = assay: Evaluation of LD50 (acute oral toxicity); assay type: in vivo; settings: single oral dose 500-2000 mg/kg
# Description: (§1) Healthy rats were divided into groups of 10 rats and maintained as described above. Rats had free access to water and food, except for a short fasting period before the treatment with the single oral dose of compounds C9, C14 and C21 or the solvent. The compounds were formulated with 1% CMC. An approximate LD50 was initially determined in a pilot study by a so called ‘staircase method’ using a small number of animals (2 each dose) and increasing doses of tested compounds. Three doses were then chosen for the determination of oral median lethal dose (LDso) (500, 1000 and 2000 mg/kg) and given to three groups of rats (10 in each group). Another group of rats (6 rats) was given equal amounts of 1% CMC orally and served as a control group. […] After 24 hours, the number of dead rats was counted in each group. The percentage of animals that had died at each dose level was transformed to probits, and then LD50 was determined by the method of Miller and Tainter, 1944 as described previously (Randhawa M A, J Ayub Med Coll Abbottabad 21 (2009) 184-185, the contents of which are hereby incorporated by reference in their entirety).
# [1] = Evaluation of LD50 (acute oral toxicity); assay type: in vivo; settings: rat, in vivo, po; single intragastric administration, rats, 24 h
# Description: as §1
# male diabetic rats = assay: Copulatory behavior testing in diabetic animals; assay type: in vivo, rat; settings: 5 mg/kg/day for 14 days; for ejaculation latency (EL) / intromission frequency (IF) / intromission latency (IL) / mount frequency (MF) / mount latency (ML) / post-ejaculatory interval (PEI) / copulatory efficiency (CE) / mean intromission interval (MII): male diabetic rats; for copulatory efficiency (CE): CE=(IF/MF)x100; for mean intromission interval (MII): MII=EL/IF; for sexual function in diabetic rats: versus diabetic control rats
# Procedure: Nearly 90% of the population suffering from diabetic conditions report disturbances in sexual function, encompassing a decrease in libido, impotence and infertility (Kamenov Z A, Exp Clin Endocrinol Diabetes 123 (2015) 141-158). Diabetic was induced in experimental animals by intraperitoneal administration of streptozotocin in separate groups of male animals. Diabetes was induced by a single intraperitoneal injection of freshly prepared 65 mg/kg streptozotocin in […] citrate buffer, pH 4.4 (Mendez J D and Ramos H G, Arch Med Res 25 (1994) 367-375). All rats receiving streptozotocin were given a 10% sucrose solution in the first 48 h after injection to prevent hypoglycemia. After 72 h of streptozotocin administration, rats with fasting serum glucose more than 350 mg/dL were considered as diabetic. Glibenclamide was given by oral gavage once a day (10 mg/kg/day) to diabetic animals to avoid mortality throughout the investigation (Abdel-Aziz A A-M. et al., Eur J Med Chem 46 (2011) 4324-4329). The male rats were trained for sexual behavior study before induction of diabetes and treatment, as mentioned above. Diabetic rats were given a daily oral dose of 5 mg/kg of compounds C9, C14 and C21 for 14 consecutive days. The sexual behavior of the animals was assessed on day 15 of the treatment. The copulatory behavior testing was performed, and CE and MII were calculated.
# male rats = assay: Copulatory behavior testing; assay type: in vivo, rat; settings: 5 mg/kg oral; for copulatory efficiency (CE): CE=(IF/MF)x100; for mean intromission interval (MII): MII=EL/IF
# Procedure: Sexually mature Wistar albino male and female rats weighing 150-180 g (10-14 weeks old) were used in our study. Males were trained for sexual behavior with estrus females, that is, two hours a day for one week, before the investigations. Females were brought into the estrous phase artificially by sequential injection of estradiol benzoate (Sigma) (25 μg/animal) and progesterone (Sigma) (250 μg/animal) subcutaneously, 48 and 4 hours before pairing, respectively. Only those sexually active animals were used subsequently in the study. Sexually active rats were isolated and housed in separate cages at room temperature (24±2° C.) on a reversed day/night cycle with a relative humidity of 50-55% during the experimental period. All sexual studies were performed in a calm laboratory condition under subdued light. For the toxicity study, adult Wistar albino male rats were used separately. Rats were obtained from the Experimental Animal Care Center, College of Pharmacy, King Saud University. Animals were fed with a standard pellet diet and provided water ad libitum. All experiments were performed per the protocols and recommendations of the NIH Guide for the Care and Use of Laboratory Animals and the legal requirements of King Saud University for investigations on humans and animals.
# Based on a preliminary study to select the appropriate dose for the promising synthesized compounds, the compounds were administered separately to sexually experienced male rats by oral gavage at 5 mg/kg in a 0.5% sodium carboxymethyl cellulose (CMC) vehicle. […] All solutions were freshly prepared at a concentration that allowed the administration of 1 ml/kg.
# After drug treatment, rats were housed separately in transparent cages for acclimation. Thirty minutes after drug treatment, a sexually receptive female rat with estrous phase was introduced in each cage for 30 min and the following parameters of the copulatory behavior were recorded: namely mount latency (ML; time from introduction of the female until the first mount with or without penile insertion, it measures the degree of arousal or sexual interest or libido of the male), mount frequency (MF; the number of mounts until ejaculation, it is a measure of the degree of the male's sexual interest or libido), intromission latency (IL; time from introduction of the female until the first intromission, it measures the degree of sexual excitement and erection), intromission frequency (IF; number of vaginal penetrations until ejaculation, it measures the degree of erection), ejaculation latency (EL; time from the first intromission until ejaculation, it determines the excellent organization of copulation in rats) and post-ejaculatory interval (PEI; time interval between an ejaculation and the following first mount, it measures the refractory period that comes after ejaculation). Latency values represent the number of seconds that elapses from the introduction of the female into the copulatory arena until the male executes the first mount, intromission or ejaculation. Frequency values represent the number of ejaculations, mounts or intromission recorded during the copulatory test.
# Depending on these parameters, the following can be calculated: Copulatory efficiency (CE)=(IF/MF)×100 and mean intromission interval (MII)=EL/IF as previously described (Aydogan F. et al., J Ethnopharmacol 257 (2020) 112868; Besong E B. et al., Biochem Res Int 2018 (2018) 2869727, the contents of each of which are hereby incorporated by reference in their entirety). Experiments were repeated blindly three times using new fresh (unused) animals in each experiment.
# [2] = molecular target: Phosphodiesterase type 5 (PDE5) (Homo sapiens (Human), UniProt O76074); assay: In vitro phosphodiesterase type 5 (PDE5) inhibition assay; assay type: biochemical; settings: purified PDE5, IMAP FP assay
# [3] = test system: sexually experienced male rats; assay: Penile erection index (noncontact erection test); assay type: in vivo, rat; settings: for erectile response: oral treatment; for ED50: Rattus norvegicus, linear regression of proportion of responding rats, read-out: effective dose ED50 (dose required to give 50% responding rats)
# Procedure: The penile erection index is an established means of determining the erection promoting properties of a substance. Determination of penile erection in a noncontact position was calculated as reported previously (Haripriya V M. et al., Andrologia 51 (2019) e13180; Sharma V. et al., J Ethnopharmacol 143 (2012) 201-206, the contents of each of which are hereby incorporated by reference in their entirety). The sexually experienced male rats of all groups were given the treatment 30 minutes before experimentation. The number of animals for each dose was ten rats in each experiment. […] The results shown are the average of three separate experiments. Control animals were given 0.5% CMC as a vehicle.
# The rats of each group were placed in the observation cages (five at a time) divided into half by two sheets of metal mesh, preventing contact but allowing auditory, visual and olfactory stimuli. After a 5-min adaptation period, the test was started by placing an estrus female on the other side of the cage. Penile erection was recorded when the rats bent down to lick their erect penis. Homosexual mounting was also counted when a male rat mounted another male rat performing pelvic thrusts with or without a penile erection. […] The effective dose ED50 (the dose required to give 50% responding rats) for examined compounds was calculated using linear regression analysis by GraphPad software with the proportion of responding rats as the input data and expressed as μmol/kg.
SMILES,toxic symptoms after oral dosing (rats),LD50 at 24 h [1] [mg/kg],ejaculation latency (EL) (male diabetic rats) [s],intromission frequency (IF) (male diabetic rats),intromission latency (IL) (male diabetic rats) [s],mount frequency (MF) (male diabetic rats),mount latency (ML) (male diabetic rats) [s],post-ejaculatory interval (PEI) (male diabetic rats) [s],copulatory efficiency (CE) (male diabetic rats) [%],mean intromission interval (MII) (male diabetic rats),efficacy in improving copulatory behavior (male rats),ejaculation latency (EL) (male rats) [s],intromission frequency (IF) (male rats),intromission latency (IL) (male rats) [s],mount frequency (MF) (male rats),mount latency (ML) (male rats) [s],post-ejaculatory interval (PEI) (male rats) [s],copulatory efficiency (CE) (male rats) [%],mean intromission interval (MII) (male rats),IC50 [2],also measured
"O=S(=O)(c1ccc(Cl)cc1Cl)N1CCC(c2ccccc2)CC1 [Compound C9, 1-((2,4-Dichlorophenyl)sulfonyl)-4-phenylpiperidine]",gradually became drowsy and less responsive,> 2000,223.3,4.3,305.1,10.6,137.1,552.8,40.9,53.1,more pronounced,368.3,12.8,177.6,23.6,74.6,355.6,55.2,29.0,47.9 nM,"sexual function in diabetic rats (male diabetic rats): restored; erectile response ([3]; 1.25-5 mg/kg): statistically elevated; penile erection index (PEI) ([3]; oral, dose 1.25 mg/kg): 23.3 ± 3.3; penile erection index (PEI) ([3]; oral, dose 2.5 mg/kg): 53.3 ± 8.8; penile erection index (PEI) ([3]; oral, dose 5 mg/kg): 60.0 ± 5.7"
"O=S(=O)(c1ccc(Cl)cc1Cl)N1CCC(Cc2ccccc2)CC1 [Compound C21, 4-Benzyl-1-((2,4-dichlorophenyl)sulfonyl)piperidine]",gradually became drowsy and less responsive,> 2000,248.5,4.3,326.0,10.6,154.6,510.5,41.1,59.1,more pronounced,395.0,16.8,178.6,26.6,72.5,298.0,63.6,23.74,41.2 nM,"sexual function in diabetic rats (male diabetic rats): restored; ED50 ([3]; oral): 14.3 µmol/kg; erectile response ([3]; 1.25-5 mg/kg): statistically elevated; penile erection index (PEI) ([3]; oral, dose 1.25 mg/kg): 26.5 ± 6.6; penile erection index (PEI) ([3]; oral, dose 2.5 mg/kg): 46.6 ± 3.3; penile erection index (PEI) ([3]; oral, dose 5 mg/kg): 63.3 ± 3.4"
"Cc1cc(C)c(S(=O)(=O)N2CCC(c3ccccc3)CC2)c(C)c1 [Compound C6, 1-(Mesitylsulfonyl)-4-phenylpiperidine]",–,–,–,–,–,–,–,–,–,–,–,–,–,–,–,–,–,–,–,296 ± 5.77 nM,melting point: 157 to 159 °C
"O=S(=O)(c1ccc(Cl)c(Cl)c1)N1CCC(c2ccccc2)CC1 [Compound C11, 1-((3,4-Dichlorophenyl)sulfonyl)-4-phenylpiperidine]",–,–,–,–,–,–,–,–,–,–,more pronounced,318.1,8.3,205.5,17.1,94.6,393.5,48.5,39.6,56.7 nM and 56.8 nM,melting point: 217 to 219 °C; ED50 ([3]; oral): 12.7 µmol/kg
"NS(=O)(=O)c1ccc(CNC(=O)CN2CCC(Cc3ccccc3)CC2)cc1 [Compound C14, 2-(4-Benzylpiperidin-1-yl)-N-(4-sulfamoylbenzyl)acetamide]",gradually became drowsy and less responsive,> 2000,208.3,3.8,327.6,10.6,158.0,505.6,35.6,55.7,more pronounced,425.1,20.6,122.6,27.3,54.6,277.1,76.2,20.8,39.4 nM,"sexual function in diabetic rats (male diabetic rats): restored; ED50 ([3]; oral): 10.1 µmol/kg; erectile response ([3]; 1.25-5 mg/kg): statistically elevated; animal response (proportion of responding rats) with dose ([3]; oral, 1.25-5 mg/kg): higher response; penile erection index (PEI) ([3]; oral, dose 1.25 mg/kg): 26.6 ± 3.4; penile erection index (PEI) ([3]; oral, dose 2.5 mg/kg): 46.6 ± 3.3; penile erection index (PEI) ([3]; oral, dose 5 mg/kg): 90.0 ± 11.5"
